# According to ChEMBL document CHEMBL1133141, “Synthesis and biological activities of hapalosin derivatives with modification at the C12 position” (2000):
# Columns and labels:
# HT-1080 = experiment: Compound was tested for the induction of apoptosis in human fibrosarcoma HT1080 cell line; No induction of apoptosis up to 10 ug/mL; type: functional, cell-based
# A2780 = experiment: MDR-reversing activity was measured by vincristine accumulation in the multidrug resistant 2780AD, a subline of A2780 ovarian carcinoma cells at 10 µg/mL
Structure (SMILES),Concentration (HT-1080),Vincristine accumulation (% of control) (A2780)
CCCCCCC[C@H]1OC(=O)C[C@@H](O)[C@H](Cc2ccccc2)N(C)C(=O)[C@H](CCSC)OC(=O)[C@H]1C,No induction,269%
CCCCCCC[C@H]1OC(=O)C[C@@H](O)[C@H](Cc2ccccc2)N(C)C(=O)[C@H](Cc2ccccc2)OC(=O)[C@H]1C,No induction,254%
CCCCCCC[C@H]1OC(=O)C[C@@H](O)[C@H](Cc2ccccc2)N(C)C(=O)[C@H](CC(C)C)OC(=O)[C@H]1C,No induction,288%
CCCCCCC[C@H]1OC(=O)C[C@@H](O)[C@H](Cc2ccccc2)N(C)C(=O)[C@H](C(C)C)OC(=O)[C@H]1C [HAPALOSIN],No induction,267%
CCCCCCC[C@H]1OC(=O)C[C@@H](O)[C@H](Cc2ccccc2)N(C)C(=O)[C@H](C)OC(=O)[C@H]1C,No induction,441%
COc1ccc(CCN(C)CCCC(C#N)(c2ccc(OC)c(OC)c2)C(C)C)cc1OC (stereo not drawn) [VERAPAMIL],,350%
CCCCCCC[C@H]1OC(=O)C[C@@H](O)[C@H](Cc2ccccc2)N(C)C(=O)[C@H](C(C)CC)OC(=O)[C@H]1C (stereo partly drawn),No induction,308%
